Test results published in PubChem BioAssay AID2060906 (Molecular Pharmacology Branch, DTP, NCI, 2025).

System: 485176-168-R4-J1-PDC complex spheroid growth
Test: Anticancer human tumor 485176-168-R4-J1-PDC patient-derived pancreatic adenocarcinoma cell line growth inhibition [RAS]
Settings: for viability, T/C: stronger effect = lower value; active = viability on the fitted dose curve at most 10% of control; inactive = the rest
How it was run: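 Agents were tested in combination matrices in half-log decrements from a top concentration at or near clinical Cmax (10 microM if undetermined). Targets were multi-cell spheroids of tumour lines plus HUVEC and MSC stromal cells.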

[1] = curve of first compound, second compound 0.0316 µM
[2] = curve of first compound, second compound 0.1 µM
[3] = curve of first compound, second compound 0.316 µM
[4] = curve of first compound, second compound 1 µM
[5] = second compound 0.0316 µM, first compound 0.00316 µM
[6] = second compound 0.0316 µM, first compound 0.01 µM
[7] = second compound 0.0316 µM, first compound 0.0316 µM
[8] = second compound 0.0316 µM, first compound 0.1 µM
[9] = second compound 0.0316 µM, first compound 0.316 µM
[10] = second compound 0.0316 µM, first compound 1 µM
[11] = second compound 0.1 µM, first compound 0.00316 µM
[12] = second compound 0.1 µM, first compound 0.01 µM
[13] = second compound 0.1 µM, first compound 0.0316 µM
[14] = second compound 0.1 µM, first compound 0.1 µM
[15] = second compound 0.1 µM, first compound 0.316 µM
[16] = second compound 0.1 µM, first compound 1 µM
[17] = second compound 0.316 µM, first compound 0.00316 µM
[18] = second compound 0.316 µM, first compound 0.01 µM
[19] = second compound 0.316 µM, first compound 0.0316 µM
[20] = second compound 0.316 µM, first compound 0.1 µM
[21] = second compound 0.316 µM, first compound 0.316 µM
[22] = second compound 0.316 µM, first compound 1 µM
[23] = second compound 1 µM, first compound 0.00316 µM
[24] = second compound 1 µM, first compound 0.01 µM
[25] = second compound 1 µM, first compound 0.0316 µM
[26] = second compound 1 µM, first compound 0.1 µM
[27] = second compound 1 µM, first compound 0.316 µM
[28] = second compound 1 µM, first compound 1 µM
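Note: spheroids exposed to compounds for seven days before readout.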
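Throughout, for viability, T/C: luminescence viability expressed relative to DMSO vehicle wells set as 100%.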

C=CC(=O)N1CCN(c2nc(OCC3CCCN3C)nc3c(F)c(-c4nc(N)cc(C)c4C(F)(F)F)c(Cl)cc23)C(C)C1 (stereo unspecified) + C#Cc1c(F)ccc2cc(O)cc(-c3ncc4c(N5CC6CCC(C5)N6)nc(OCC56CCCN5CC(F)C6)nc4c3F)c12
inactive: viability, T/C [5] 103% | viability, T/C [6] 88.9% | viability, T/C [7] 88.5% | viability, T/C [8] 105% | viability, T/C [9] 96.8% | viability, T/C [10] 103% | viability, T/C [11] 117% | viability, T/C [12] 109% | viability, T/C [13] 99.2% | viability, T/C [14] 102% | viability, T/C [15] 108% | viability, T/C [16] 103% | viability, T/C [17] 86.8% | viability, T/C [18] 93.6% | viability, T/C [19] 103% | viability, T/C [20] 103% | viability, T/C [21] 87.3% | viability, T/C [22] 89.9% | viability, T/C [23] 115% | viability, T/C [24] 83.1% | viability, T/C [25] 77.5% | viability, T/C [26] 101% | viability, T/C [27] 97.1% | viability, T/C [28] 86.1% | viability, T/C (second compound 3.16 µM, first compound 0.00316 µM) 115% | viability, T/C (second compound 3.16 µM, first compound 0.01 µM) 92.2% | viability, T/C (second compound 3.16 µM, first compound 0.0316 µM) 85.3% | viability, T/C (second compound 3.16 µM, first compound 0.1 µM) 104% | viability, T/C (second compound 3.16 µM, first compound 0.316 µM) 98.1% | viability, T/C (second compound 3.16 µM, first compound 1 µM) 70.3% | viability, T/C (second compound 10 µM, first compound 0.00316 µM) 94.1% | viability, T/C (second compound 10 µM, first compound 0.01 µM) 81.8% | viability, T/C (second compound 10 µM, first compound 0.0316 µM) 95.9% | viability, T/C (second compound 10 µM, first compound 0.1 µM) 94.6% | viability, T/C (second compound 10 µM, first compound 0.316 µM) 95.2% | viability, T/C (second compound 10 µM, first compound 1 µM) 94.8%
> 1000 nM: IC50 [1] | IC50 [2] | IC50 [3] | IC50 [4] | IC50 (curve of first compound, second compound 3.16 µM) | IC50 (curve of first compound, second compound 10 µM)

O=C(c1ccc(F)c(F)c1Nc1ccc(I)cc1F)N1CC(O)([C@@H]2CCCCN2)C1 + C=CC(=O)N1CCN(c2nc(OCC3CCCN3C)nc3c(F)c(-c4nc(N)cc(C)c4C(F)(F)F)c(Cl)cc23)C(C)C1
230 nM: IC50 (curve of first compound, second compound 0.00316 µM)
148 nM: IC50 [3]
327 nM: IC50 [2]
inactive: viability, T/C (second compound 0.00316 µM, first compound 0.00316 µM) 86% | viability, T/C (second compound 0.00316 µM, first compound 0.01 µM) 90.4% | viability, T/C (second compound 0.00316 µM, first compound 0.0316 µM) 72% | viability, T/C (second compound 0.00316 µM, first compound 0.1 µM) 61.1% | viability, T/C (second compound 0.00316 µM, first compound 0.316 µM) 47.1% | viability, T/C (second compound 0.00316 µM, first compound 1 µM) 33% | viability, T/C (second compound 0.01 µM, first compound 0.00316 µM) 105% | viability, T/C (second compound 0.01 µM, first compound 0.01 µM) 80.9% | viability, T/C (second compound 0.01 µM, first compound 0.0316 µM) 70.3% | viability, T/C (second compound 0.01 µM, first compound 0.1 µM) 61.9% | viability, T/C (second compound 0.01 µM, first compound 0.316 µM) 48.5% | viability, T/C (second compound 0.01 µM, first compound 1 µM) 30.9% | viability, T/C [5] 96.1% | viability, T/C [6] 90.7% | viability, T/C [7] 77% | viability, T/C [8] 55.5% | viability, T/C [9] 47.4% | viability, T/C [10] 35.9% | viability, T/C [11] 96.4% | viability, T/C [12] 82.5% | viability, T/C [13] 73.5% | viability, T/C [14] 69.2% | viability, T/C [15] 49.4% | viability, T/C [16] 34.4% | viability, T/C [17] 90.6% | viability, T/C [18] 86.2% | viability, T/C [19] 84.1% | viability, T/C [20] 52.6% | viability, T/C [21] 49.2% | viability, T/C [22] 37.1% | viability, T/C [23] 86.1% | viability, T/C [24] 72.9% | viability, T/C [25] 58% | viability, T/C [26] 70.8% | viability, T/C [27] 50.8% | viability, T/C [28] 36.6%
324 nM: IC50 [4]
212 nM: IC50 (curve of first compound, second compound 0.01 µM)
195 nM: IC50 [1]

C[C@@H](NC(=O)c1ncnc(N)c1Cl)c1ncc(C(=O)Nc2cc(C(F)(F)F)c(Cl)cn2)s1
inactive: viability, T/C (compound 0.0316 µM) 105% [middle of 4 runs] | viability, T/C (compound 0.1 µM) 96% [middle of 4 runs] | viability, T/C (compound 0.316 µM) 88.5% [middle of 4 runs] | viability, T/C (compound 1 µM) 79.2% [middle of 4 runs] | viability, T/C (compound 3.16 µM) 79.1% [middle of 4 runs] | viability, T/C (compound 10 µM) 60.9% [middle of 4 runs]
> 10000 nM: IC50 (curve of compound)
